{"source": "patent US20100055032A1", "about": "“METHODS FOR […] IMAGING USING NANOP[…] AGENTS” (NanoScan Imaging LLC, priority 2001, published 2010)", "assay": "CT evaluation of initial uptake and vascular distribution of PH-50 in normal rabbits", "assay_type": "in vivo, New Zealand white rabbits", "method": "One (1) mL of PH-50 injected as a bolus intravenously (IV) via the jugular vein (n=2); and three (3) mL with a five (5) minute infusion via IV by way of the jugular vein (n=2); using the criteria set forth below in Table 1:\nThe animals were anesthetized via mask using Isoflorene® prior to each study and maintained under anesthesia during CT scan procedures. The animals were recovered and were mobile and allowed to drink up to the 8 hour study. Digital Subtraction Angiography (DSA) was performed during initial injection (one IV bolus and one infusion), then each rabbit was immediately moved to CT. The CT was performed after the initial injection (one IV bolus and one infusion).\nAll CT imaging was performed using a GE® Sytec Sri Helical Scanner (Milwaukee, Wis.) and the images were stored as DICOM3 on GE® optical and CD-Rom medium. The CT imaging parameters for these studies were 1 mm consecutive slices at 120 kvp at 1.5 sec, 200 mA. All scans were done with a standard phantom placed beneath the animal. All CT scans performed were of the entire animal (rostral nasal area to pelvis). Contrast attenuation was measured in Hounsfield units (HU) and expressed as percent (%) uptake, taking into account the calibration from the phantom. The iodine concentration and iodine uptake were estimated post-injection from vascular, lung and liver tissues.", "key": {"[1]": {"conditions": "Rabbit No. 1156 (bolus), 60 min, pre-treatment = 0"}, "[2]": {"conditions": "Rabbit No. 1156 (bolus), 480 min, pre-treatment = 0"}, "[3]": {"conditions": "Rabbit No. 1156, bolus injection 1 mL IV (50 mg/kg), 0 min post injection"}, "[4]": {"conditions": "Rabbit No. 1156, bolus injection 1 mL IV (50 mg/kg), 5 min post injection"}, "[5]": {"conditions": "Rabbit No. 1156, bolus injection 1 mL IV (50 mg/kg), 15 min post injection"}, "[6]": {"conditions": "Rabbit No. 1156, bolus injection 1 mL IV (50 mg/kg), 60 min post injection"}, "[7]": {"conditions": "Rabbit No. 1156, bolus injection 1 mL IV (50 mg/kg), 480 min post injection"}, "[8]": {"conditions": "Rabbit No. 1159, bolus injection 1 mL IV (50 mg/kg), 15 min post injection"}, "[9]": {"conditions": "Rabbit No. 1159, bolus injection 1 mL IV (50 mg/kg), 60 min post injection"}, "[10]": {"conditions": "Rabbit No. 1159, bolus injection 1 mL IV (50 mg/kg), 480 min post injection"}, "[11]": {"conditions": "Rabbit No. 1166, infusion 3 mL/5 min IV (150 mg/kg), 15 min post injection"}, "[12]": {"conditions": "Rabbit No. 1166, infusion 3 mL/5 min IV (150 mg/kg), 60 min post injection"}, "[13]": {"conditions": "Rabbit No. 1166, infusion 3 mL/5 min IV (150 mg/kg), 480 min post injection"}}}
{"molecule": "CCOC(=O)CCCCCOC(=O)c1c(I)c(NC(C)=O)c(I)c(NC(C)=O)c1I", "note": "[PH-50, 6-ethoxy-6-oxohexy-3,5-bis(acetylamino)-2,4,6-triiodobenzoate]", "values": [{"measurement": "Percent Uptake (%) Brain", "setting": "[1]", "value": "−3", "unit": "%"}, {"measurement": "Percent Uptake (%) Cardiac", "setting": "[1]", "value": 18, "unit": "%"}, {"measurement": "Percent Uptake (%) Liver", "setting": "[1]", "value": 19, "unit": "%"}, {"measurement": "Percent Uptake (%) Portal Vein", "setting": "[1]", "value": 108, "unit": "%"}, {"measurement": "Percent Uptake (%) Posterior Vena Cava", "setting": "[1]", "value": 33, "unit": "%"}, {"measurement": "Percent Uptake (%) Aorta", "setting": "[2]", "value": 23, "unit": "%"}, {"measurement": "Percent Uptake (%) Brain", "setting": "[2]", "value": "−3", "unit": "%"}, {"measurement": "Percent Uptake (%) Cardiac", "setting": "[2]", "value": 4, "unit": "%"}, {"measurement": "Percent Uptake (%) Liver", "setting": "[2]", "value": "−12", "unit": "%"}, {"measurement": "Percent Uptake (%) Portal Vein", "setting": "[2]", "value": "−5", "unit": "%"}, {"measurement": "Percent Uptake (%) Posterior Vena Cava", "setting": "[2]", "value": 91, "unit": "%"}, {"measurement": "Hounsfield Units (HU) Aorta", "setting": "[3]", "value": 65.00, "unit": "HU"}, {"measurement": "Hounsfield Units (HU) Brain", "setting": "[3]", "value": 29.00, "unit": "HU"}, {"measurement": "Hounsfield Units (HU) Cardiac", "setting": "[3]", "value": 54.00, "unit": "HU"}, {"measurement": "Hounsfield Units (HU) Liver", "setting": "[3]", "value": 85.00, "unit": "HU"}, {"measurement": "Hounsfield Units (HU) Portal Vein", "setting": "[3]", "value": 52.00, "unit": "HU"}, {"measurement": "Hounsfield Units (HU) Posterior Vena Cava", "setting": "[3]", "value": 51.00, "unit": "HU"}, {"measurement": "Hounsfield Units (HU) Aorta", "setting": "[4]", "value": 34.00, "unit": "HU"}, {"measurement": "Hounsfield Units (HU) Brain", "setting": "[4]", "value": 27.00, "unit": "HU"}, {"measurement": "Hounsfield Units (HU) Cardiac", "setting": "[4]", "value": 45.00, "unit": "HU"}, {"measurement": "Hounsfield Units (HU) Liver", "setting": "[4]", "value": 95.32, "unit": "HU"}, {"measurement": "Hounsfield Units (HU) Portal Vein", "setting": "[4]", "value": 58.08, "unit": "HU"}, {"measurement": "Hounsfield Units (HU) Posterior Vena Cava", "setting": "[4]", "value": 67.00, "unit": "HU"}, {"measurement": "Hounsfield Units (HU) Aorta", "setting": "[5]", "value": 40.85, "unit": "HU"}, {"measurement": "Hounsfield Units (HU) Brain", "setting": "[5]", "value": 29.03, "unit": "HU"}, {"measurement": "Hounsfield Units (HU) Cardiac", "setting": "[5]", "value": 44.02, "unit": "HU"}, {"measurement": "Hounsfield Units (HU) Liver", "setting": "[5]", "value": 91.73, "unit": "HU"}, {"measurement": "Hounsfield Units (HU) Portal Vein", "setting": "[5]", "value": 79.65, "unit": "HU"}, {"measurement": "Hounsfield Units (HU) Posterior Vena Cava", "setting": "[5]", "value": 40.31, "unit": "HU"}, {"measurement": "Hounsfield Units (HU) Aorta", "setting": "[6]", "value": 25.38, "unit": "HU"}, {"measurement": "Hounsfield Units (HU) Brain", "setting": "[6]", "value": 30.57, "unit": "HU"}, {"measurement": "Hounsfield Units (HU) Cardiac", "setting": "[6]", "value": 46.52, "unit": "HU"}, {"measurement": "Hounsfield Units (HU) Liver", "setting": "[6]", "value": 89.56, "unit": "HU"}, {"measurement": "Hounsfield Units (HU) Portal Vein", "setting": "[6]", "value": 87.37, "unit": "HU"}, {"measurement": "Hounsfield Units (HU) Posterior Vena Cava", "setting": "[6]", "value": 25.31, "unit": "HU"}, {"measurement": "Hounsfield Units (HU) Aorta", "setting": "[7]", "value": 19.20, "unit": "HU"}, {"measurement": "Hounsfield Units (HU) Brain", "setting": "[7]", "value": 30.50, "unit": "HU"}, {"measurement": "Hounsfield Units (HU) Cardiac", "setting": "[7]", "value": 40.65, "unit": "HU"}, {"measurement": "Hounsfield Units (HU) Liver", "setting": "[7]", "value": 66.15, "unit": "HU"}, {"measurement": "Hounsfield Units (HU) Portal Vein", "setting": "[7]", "value": 39.73, "unit": "HU"}, {"measurement": "Hounsfield Units (HU) Posterior Vena Cava", "setting": "[7]", "value": 36.24, "unit": "HU"}, {"measurement": "Hounsfield Units (HU) Aorta", "setting": "[8]", "value": 43.80, "unit": "HU"}, {"measurement": "Hounsfield Units (HU) Brain", "setting": "[8]", "value": 32.30, "unit": "HU"}, {"measurement": "Hounsfield Units (HU) Cardiac", "setting": "[8]", "value": 30.13, "unit": "HU"}, {"measurement": "Hounsfield Units (HU) Liver", "setting": "[8]", "value": 87.08, "unit": "HU"}, {"measurement": "Hounsfield Units (HU) Portal Vein", "setting": "[8]", "value": 53.54, "unit": "HU"}, {"measurement": "Hounsfield Units (HU) Posterior Vena Cava", "setting": "[8]", "value": 52.17, "unit": "HU"}, {"measurement": "Hounsfield Units (HU) Aorta", "setting": "[9]", "value": 43.83, "unit": "HU"}, {"measurement": "Hounsfield Units (HU) Brain", "setting": "[9]", "value": 34.39, "unit": "HU"}, {"measurement": "Hounsfield Units (HU) Cardiac", "setting": "[9]", "value": 44.96, "unit": "HU"}, {"measurement": "Hounsfield Units (HU) Liver", "setting": "[9]", "value": 94.17, "unit": "HU"}, {"measurement": "Hounsfield Units (HU) Portal Vein", "setting": "[9]", "value": 89.92, "unit": "HU"}, {"measurement": "Hounsfield Units (HU) Posterior Vena Cava", "setting": "[9]", "value": 65.48, "unit": "HU"}, {"measurement": "Hounsfield Units (HU) Aorta", "setting": "[10]", "value": 21.00, "unit": "HU"}, {"measurement": "Hounsfield Units (HU) Brain", "setting": "[10]", "value": 31.00, "unit": "HU"}, {"measurement": "Hounsfield Units (HU) Cardiac", "setting": "[10]", "value": 33.73, "unit": "HU"}, {"measurement": "Hounsfield Units (HU) Liver", "setting": "[10]", "value": 76.24, "unit": "HU"}, {"measurement": "Hounsfield Units (HU) Portal Vein", "setting": "[10]", "value": 39.15, "unit": "HU"}, {"measurement": "Hounsfield Units (HU) Posterior Vena Cava", "setting": "[10]", "value": 25.36, "unit": "HU"}, {"measurement": "Hounsfield Units (HU) Aorta", "setting": "[11]", "value": 20.82, "unit": "HU"}, {"measurement": "Hounsfield Units (HU) Brain", "setting": "[11]", "value": 27.15, "unit": "HU"}, {"measurement": "Hounsfield Units (HU) Cardiac", "setting": "[11]", "value": 47.51, "unit": "HU"}, {"measurement": "Hounsfield Units (HU) Liver", "setting": "[11]", "value": 117.99, "unit": "HU"}, {"measurement": "Hounsfield Units (HU) Portal Vein", "setting": "[11]", "value": 63.85, "unit": "HU"}, {"measurement": "Hounsfield Units (HU) Posterior Vena Cava", "setting": "[11]", "value": 43.09, "unit": "HU"}, {"measurement": "Hounsfield Units (HU) Aorta", "setting": "[12]", "value": 23.08, "unit": "HU"}, {"measurement": "Hounsfield Units (HU) Brain", "setting": "[12]", "value": 34.85, "unit": "HU"}, {"measurement": "Hounsfield Units (HU) Cardiac", "setting": "[12]", "value": 37.66, "unit": "HU"}, {"measurement": "Hounsfield Units (HU) Liver", "setting": "[12]", "value": 108.39, "unit": "HU"}, {"measurement": "Hounsfield Units (HU) Portal Vein", "setting": "[12]", "value": 59.87, "unit": "HU"}, {"measurement": "Hounsfield Units (HU) Posterior Vena Cava", "setting": "[12]", "value": 25.08, "unit": "HU"}, {"measurement": "Hounsfield Units (HU) Aorta", "setting": "[13]", "value": 14.30, "unit": "HU"}, {"measurement": "Hounsfield Units (HU) Brain", "setting": "[13]", "value": 38.90, "unit": "HU"}, {"measurement": "Hounsfield Units (HU) Cardiac", "setting": "[13]", "value": 35.31, "unit": "HU"}, {"measurement": "Hounsfield Units (HU) Liver", "setting": "[13]", "value": 63.20, "unit": "HU"}, {"measurement": "Hounsfield Units (HU) Portal Vein", "setting": "[13]", "value": 42.92, "unit": "HU"}, {"measurement": "Hounsfield Units (HU) Posterior Vena Cava", "setting": "[13]", "value": 39.35, "unit": "HU"}, {"measurement": "adverse reactions to the compound", "setting": "normal rabbits, 1 mL bolus or 3 mL/5 min infusion IV", "value": "no adverse reactions"}, {"measurement": "Hounsfield units in the liver post-injection", "setting": "normal rabbits, CT", "value": "dramatic increase"}]}
